Where two headings read alike, the source gives them in different places.

Data on seven compounds can be found in US8822491B2, “Methods and compositions for treating β-thalassemia and sickle cell disease” (Academia Sinica, priority 2011, dated 2014).

Holding throughout (assay type): cell-based
Assay [1] concerns human erythroid progenitor cells. The assay can be described thus: Cell proliferation (alamar Blue) of differentiated primary human erythroid cells. The conditions noted are these: for IC50: Erythroid progenitor cell, 72 h, read-out: IC50 (concentration at which the cell proliferation rate is reduced by 50%). As to the method:
FIG. 3 illustrates induction of the endogenous globin genes in the primary culture of human erythroid progenitor cells by compound A. (A) Dosage effect of compound A in the differentiated human erythroid progenitor cells. The differentiated primary cultured cells were treated with different concentrations of compound A for 3 days. Total mRNA was extracted, and relative induction of the β and γ globin mRNAs was determined by real time RT-PCR analysis. The cell proliferation abilities were determined with use of alamar Blue reagent (mock control as 100%). The white bars indicated the relative expression levels of β-globin. The gray bars represent the relative levels of γ-globin mRNA. (B) Comparison of γ and β globin gene expression patterns in primary erythroid cultured cells treated with different fetal globin inducing agents. […] The total RNAs were then isolated for real time RT-PCR analysis. Relative induction of the β globin gene (white bars) and the γ globin gene (grey bars) was then determined.
IC50 values are the concentrations of the individual compounds at which the cell proliferation rates are reduced by 50%.
(§1) Mouse erythroleukemic (MEL) cells, an adult erythroid cell line (Friend, et al. (1971) Proc Natl Acad Sci USA 68:378-82), were maintained in DMEM medium (Gibco) supplemented with 10% FBS and 1% penicillin-streptomycin, in 37° C. chamber under a 5% CO2 humidified atmosphere. For establishing stable cell lines, transfection of the reporter pmLAR-Gp-DsRed-Bp-d2EGFP into MEL cells was carried out using the Neon™ transfection system (Invitrogen). 2×10^6 MEL cells were transfected with 5 μg of the plasmid. Following microporation, the MEL cells were seeded in 10 ml antibiotics-free DMEM for 24 hrs and selected with […] of neomycin for one month. The primary human erythroid culture was initiated by maintaining the purified mononuclear cells in SFEM medium with 1× cc100 cytokine mix (StemSpan) for 7 days. The cells were then kept in the differentiation medium (SFEM with 20 ng/ml SCF, 1 U/ml EPO, 5 ng/ml IL-3, 2 micromolar dexamethasone) for another 7 days at a density of 0.1−1×10^6 cells/ml. The cells were treated with chemical compound at day 7 post-differentiation and then harvested for further analysis after 3 days of compound treatment.
For orientation: The colour change of resazurin is a common sign of viable cells or microbes.

The subject of another assay is γ globin mRNA. The assay can be described thus: Real time RT-PCR of γ globin mRNA in primary human erythroid cultures. Also noted: expression level of the fetal γ globin gene: dose or concentration left out as unconfirmed. As to the method: as §1
(§2) Total RNAs were isolated with use of the RNAspin Mini kit (GE Healthcare). cDNA synthesis was carried out using SuperScript II reverse transcriptase (Invitrogen). Quantitative RT-PCR was performed using the SYBR Green PCR Master Mix (Applied Biosystems) and ABI 7500 real-time System. All data were analyzed after normalization to the expression level of the mouse or human […] gene.
A general note: In qPCR the cycle at which signal appears reflects the starting amount.

In assay [2] the test system is mouse embryonic εy globin mRNA. Nature of the assay: Real-time RT-PCR of endogenous embryonic globin mRNA in MEL cells. As to the method:
5×10^4 MEL cells carrying the dual fluorescence reporter were seeded on optical Packard 96-well view plates, treated with […] of the individual compound for 3 days, and primary screened for their DsRed intensity with use of the Wallac Victor3 1420 multilabel counter (Ex: 550/9; Em: 620). The secondary screenings were performed using a digital image detector, Cellomics Arrayscan 3.0 system, which doubly confirmed the intracellular DsRed fluorescence induced by the compound treatment. The endogenous globin gene expression patterns in the positive MEL cells from the primary and secondary screens as well as in compound-treated primary human erythroid cultures were subsequently identified by real time RT-PCR analysis.
as §2

For a further assay, the system named is β globin mRNA. Nature of the assay: Real time RT-PCR of β globin mRNA in primary human erythroid cultures. On the set-up: dose or concentration left out as unconfirmed. The conditions noted are these: STO-609, 3 days, FIG. 7A. How it is done:
as §1, with “The cells were treated with chemical compound at day 7 post-differentiation and then harvested for further analysis after 3 days of compound treatment.” left out
as §2

The subject of another assay is c-Myb. Nature of the assay: Real-time RT-PCR of c-Myb expression in primary human erythroid cultures. The conditions noted are these: different concentrations of STO-609, 3 days, FIG. 7D. As to the method: Dosage effects of STO-609 on the proliferation and γ/β globin gene expression of differentiated human erythroid progenitor cells were analyzed as described for compounds A-F. The differentiated primary cultured erythroid cells were treated with different concentrations of STO-609 for 3 days. (A) Relative induction of β (white bars) and γ globin mRNAs (black bars) was determined by real time RT-PCR analysis. The proliferation curve of the cells is shown with the mock control being 100%. (B) Relative expression levels of NF-E4 were determined by real time RT-PCR analysis and shown by the grey bars. (C) Relative expression levels of Bcl11a in response to treatments with different concentrations of STO-609 are shown (white bars). (D) Relative expression levels of c-Myb in cells treated with different concentrations of STO-609 are shown (black bars). The mock control is set as 1. […]
as §2

Another assay relates to NF-E4. Nature of the assay: Real-time RT-PCR of NF-E4 expression in primary human erythroid cultures. As to conditions: different concentrations of STO-609, 3 days, FIG. 7B. How it is done: (§3) Primary human erythroid cultures were treated with 0.25 μM of compound A, and the relative expression levels of different transcription factors were then determined by real-time RT-PCR analysis. The white bars indicate the expression levels of mock control set as 1. The black bars are the relative expression levels in compound A-treated cells.
(§4) Mouse erythroleukemic (MEL) cells, an adult erythroid cell line (Friend, et al. (1971) Proc Natl Acad Sci USA 68:378-82), were maintained in DMEM medium (Gibco) supplemented with 10% FBS and 1% penicillin-streptomycin, in 37° C. chamber under a 5% CO2 humidified atmosphere. For establishing stable cell lines, transfection of the reporter pmLAR-Gp-DsRed-Bp-d2EGFP into MEL cells was carried out using the Neon™ transfection system (Invitrogen). 2×10^6 MEL cells were transfected with 5 μg of the plasmid. Following microporation, the MEL cells were seeded in 10 ml antibiotics-free DMEM for 24 hrs and selected with […] of neomycin for one month. […]
as §2

A further assay relates to Bcl11a. The assay can be described thus: Real-time RT-PCR of Bcl11a expression in primary human erythroid cultures. As to conditions: different concentrations of STO-609, 3 days, FIG. 7C. How it is done:
as §3, §4, §2

Where [3] appears, read: differentiated human primary erythroid cells, 3 days.
Setting [4] is: different concentrations of compound A, 3 days, FIG. 3A.

In the case of `CCCC(=O)[O-].[Na+]` [sodium butyrate], the IC50 in assay [1] (Homo sapiens) came to 222 µM.
In the case of `NC(=O)NO` [hydroxyurea], the IC50 in assay [1] (setting [3]) came to 146 µM.
On the same count and under the same terms, the value for `O=c1c2cccc3c(Cl)ccc(c32)c2nc3ccccc3n12` [compound C, 3-Chloro-benzo[de]benzo[4,5]imidazo[2,1-a]isoquinolin-7-one] was 75.2 µM.
On to `O=C(O)c1ccc(C(=O)O)c2c(-c3ccc4c(=O)n5c6ccccc6nc5c5ccc(C(=O)O)c3c45)ccc(C(=O)O)c12` [compound A, 8-(3-Carboxy-7-oxo-7H-benzo[de]benzo[4,5]imidazo[2,1-a]isoquinolin-4-yl)-naphthalene-1,4,5-tricarboxylic acid], for which the “γ-globin induction fold compared to TSA, hydroxyurea and sodium butyrate” value in the assay on γ globin mRNA (compound A […] vs TSA 0.33 μM, HU 100 μM, NaB 0.5 mM, 3 days, FIG. 3B) was “highest γ-globin induction fold”. Further, the “relative expression level of the γ globin gene as a function of concentration” value in the assay on γ globin mRNA (setting [4]) is “significantly increased”. In addition, the “induction of endogenous mouse embryonic εy globin mRNA expression level” value in assay [2] is given as “more than 10 fold”. Moreover, the IC50 in assay [1] (setting [3]) amounted to 0.2 µM. Moreover, the “proliferation rates of the cells” value in assay [1] (setting [4]) was “in reverse relationship with the concentration of compound A”.
In the case of `O=C(O)c1ccc2c(=O)n3c4ccccc4nc3c3ccc(C(=O)O)c1c23` [compound F, 7-Oxo-7H-benzo[de]benzo[4,5]imidazo[2,1-a]isoquinoline-3,4-dicarboxylic acid], the IC50 in assay [1] (setting [3]) worked out at 103 µM.
On the same count and under the same terms, with `O=c1c2cccc3cccc(c32)c2nc3ccccc3n12` [compound B, Benzo[de]benzo[4,5]imidazo[2,1-a]isoquinolin-7-one] the figure was 21.8 µM.
Turning to `CC(=O)O.O=C(O)c1ccc2c3c1cccc3c(=O)n1c3ccccc3nc21` [STO-609, 7-oxo-7H-benzimidazo[2,1-a]benz[de]isoquinoline-3-carboxylic acid acetate], in the assay with β globin mRNA, the “expression level of the adult β globin gene (elevated?)” value is “but not the adult β globin”. For the same compound, the “transcript of c-Myb” value in the assay on c-Myb is “significantly reduced”. Besides, in the assay with NF-E4, the “transcription of the γ globin gene activator NF-E4” value was “up-regulation”. For the same compound, in the assay with γ globin mRNA (STO-609, 3 days, FIG. 7A), the concentration at which the fetal γ globin gene expression was elevated is at least 50 µM and the “expression level of the fetal γ globin gene” value was “elevated”. For the same compound, the “ability to induce fetal γ globin expression” value in the assay on γ globin mRNA (survey of compounds with the benzo[de]benzo[4,5]imidazo[2,1-a]isoquinolin-7-one core) was “displays the fetal γ globin-inducting capability”. In addition, in the assay on Bcl11a, the “expression level of the γ globin gene repressor Bcl11a” value is reported as “down-regulated”.
